Assay results from patent US5215738A, “Benzamide and nicotinamide radiosensitizers” (SRI International, priority 1990, dated 1993).
Structures can show the parent of a compound that is named as a salt.

Experiments:
EMT6 tumors = assay: In vivo assay for radiosensitization activity (EMT6 tumors in BALB/c mice); parameters: species or system female BALB/c mice; key: 0: No radiosensitization; 1: Minimal radiosensitization (some radiosensitization relative to controls but lowest survival>3×lowest survival with MIS); 2: Moderate radiosensitization (not good as MIS, but lowest surviving fraction<3×lowest surviving fraction with MIS); 3: Good radiosensitization (equal to MIS); 4: Excellent radiosensitization (superior to MIS); settings: score 0 to 4 compared with MIS, 5 mmol/kg or 2/3 of the LD50, 2,000 rad
Method: In Vivo Assay for Radiosensitization Activity
The compounds of the invention are tested in vivo for radiosensitization activity by the assay of Brown, J. M. Radiation Res (1975) 64:633-47, incorporated herein by reference. For this assay EMT6 tumors in female BALB/c mice weighing 20-25 g are used. These mice are bred under specific pathogen-free conditions and are 3-4 months old at the beginning of each experiment. The EMT6 tumor is grown intradermally in the flank from an inoculation of 2×10^5 tumor cells taken from the 2nd-8th in vitro passage of the tumor cells since removal from the previous in vivo tumor. Two tumors per mouse are implanted, and are used as subject tumors when they reach a volume of approximately […]. At this point the tumors contain approximately 20% hypoxic cells.
Test compounds are compared against MIS in this assay. The test compound is tested at a fixed injected dose of either 5 mmol/kg or 2/3 of the LD50 (whichever is lower), MIS is injected into controls at the same dose. Additional suitable controls of test compound-injected but nonirradiated and saline-injected and irradiated mice are also included. A fixed radiation dose of 2,000 rad is applied at variable intervals of 5 min to 2 hr between injection and irradiation. Typically, irradiation is applied at 5, 10, 15, 20, 30, 45, 60, 90, and 120 min following intraperitoneal administration of both drugs. By using these intervals, the results give an indication of both the optimum time to irradiate and of how the test compound sensitizes in relationship to MIS.
Irradiation of the EMT6 tumors is done by irradiating nonanesthetized tumor-bearing mice in a Plexiglas box. Irradiation conditions are 250 kVp X-rays, 15 mA, FSC 33 cm, added filtration of 0.35 mm Cu, half value layer 1.3 mm Cu, and a dose rate of 317 rad/min.
Radiosensitization activity is judged by survival rate of dissected and cultured tumor cells as follows: The tumor-bearing mice are killed immediately after irradiation, and tumors dissected from the skin, cut into several pieces, and made into a fine brei by high-speed chopping with a razor blade attached to a jigsaw. The brei is added to 30 ml of Hank's buffered salt solution (HBSS) containing 0.02% DNase, 0.05% promase, and 0.02% collagenase. The suspension is stirred for 30 min at 37° C., filtered, and centrifuged at 1,600 rmp for 10 min at 4° C. The cell pellet is resuspended in complete Waymouth's medium plus 12-1/2% horse serum plus 2-12% fetal calf serum (FCS) and an aliquot mixed with trypan blue and counted with the use of a hemacytometer. […] After incubation for 13 days, the colonies are fixed and stained, and those containing 50 cells or more are counted. […]
The test compound is scored on the scale of 0 to 4 based on how it compares with MIS. […]

[1] = Cytotoxicity test (% cell survival, hypoxic cells); format: cell-based, Chinese hamster; settings: hamster, cho ha-1 cells, 10 mM, 22° C., hypoxia
Method: (§1) Cytotoxicity tests were also carried out on some of the compounds. The test procedure was as follows: Log-phase Chinese hamster ovary HA-1 cells were trypsinized (0.5% trypsin in Hank's buffered salt solution (HBSS)) and plated in 60 mm Permanox petri dishes in concentrations necessary to yield approximately 30 colonies after experimental treatment. The cells were allowed to attach overnight. Then the medium was removed from each dish and replaced with 2 ml of medium containing varying concentrations of the test compound. The petri dishes were then placed in nylon chamber fitted with gassing ports and, to achieve hypoxia, were gassed at room temperature with humidified N2 containing 5% CO2 ' for 1 hr at a rate of 1 l/min. The cells are then exposed to 10 mM of the test compound for 1 hr at 22° C. The % cell survival is read after such treatment.

[2] = tested on: Chinese hamster ovary HA-1 cells; assay: Cytotoxicity test (% cell survival, hypoxic cells); format: cell-based; settings: 10 mM, 1 hr, 22° C., hypoxia, CHO HA-1 cells; 60 min, 10000 µM
Method: as §1

[3] = tested on: normal cells (tail growth) and tumor cells; settings: nicotinamide administered prior to irradiating; cited from earlier work
Chinese hamster cells = settings: added during or after irradiation; non-hypoxic cells; cited from earlier work
Water solubility = format: physicochemical

Structure (SMILES) | Radiosensitization (EMT6 tumors) | viability at 1 h, 10000 µM [1] | also measured
NC(=O)c1cccc(O)c1 [3-hydroxybenzamide] | 3 | 90% | Cytotoxicity % Cell Survival [2]: 77%
COCCNc1cncc(C(N)=O)c1 [3-(2-methoxyethylamino)nicotinamide, 3-(2-methoxyethylamino) nicotinamide] | 3 |  | 
NC(=O)c1cccc(OCCO)c1 [3-(2-hydroxyethoxy)benzamide] | 3 | 89% | 
NC(=O)c1cccnc1 [nicotinamide] | 3 |  | enhancement ratio, normal vs tumor cells [3]: greater for normal cells in vivo than that exhibited for tumor cells
NC(=O)c1cccc(N)c1 [m-aminobenzamide] |  |  | sensitization to lethal effects of radiation (Chinese hamster cells): found to sensitize these cells to the lethal effects of radiation
NC(=O)c1cncc(O)c1 [5-hydroxynicotinamide sodium salt, 5-hydroxynicotinamide] |  |  | water solubility (Water solubility): very water soluble
